The values that follow are results of earlier work, collected in US4351830A (priority 1980, dated 1982).

For series [1] the following is noted: literature.
The test system of another series is bacterial infections. Conditions: literature.

As for `CC(=O)N[C@H]1C(O)O[C@H](CO)[C@@H](O)[C@@H]1O[C@H](C)C(=O)N[C@@H](C)C(=O)N[C@H](CCC(N)=O)C(=O)O` (stereo partly drawn) [N-acetylmuramyl-L-alanyl-D-glutamine], the adjuvant effect result in series [1] is given as “high adjuvant effect”.
Take `CC(=O)N[C@H]1C(O)O[C@H](CO)[C@@H](O)[C@@H]1O[C@H](C)C(=O)N[C@@H](C)C(=O)N[C@H](CCC(=O)O)C(N)=O` (stereo partly drawn) [N-acetylmuramyl-L-alanyl-D-isoglutamine]: in series [1], the adjuvant effect entry is “high adjuvant effect”.
With orthobenzoic acid oxide, in the series with bacterial infections, the “protective activity against bacterial infections” value is given as “exhibits a protective activity against bacterial infections”.
